From ChEMBL document CHEMBL2424516, “Facile synthesis of novel quinoline derivatives as anticancer agents” (2013) come the findings set out here.

Structures are written as SMILES. The source made the active and inactive calls. The calls are words filed in the database; no cut-off is given here.

In assay [1] the test system is MCF7. The experiment in a line: Cytotoxicity against human MCF7 cells by SRB assay. The assay is classed as functional. The note with it: for CC50: read-out: LC50 (the source's name). For orientation: The SRB assay estimates cell density from bound dye.
The test system of assay [2] is HeLa. In words: Cytotoxicity against human HeLa cells by SRB assay. The format is functional.
The subject of assay [3] is Escherichia coli. In words: Induction of Escherichia coli DNA cleavage at 100 ug after 2 hrs by agarose gel electrophoresis.

In general, GI50 refers to the concentration that inhibits growth by half. What is called TGI is the concentration giving total growth inhibition. Read a high TGI as lower sensitivity of the cells. Take `CC(=O)NC1=NN(C(C)=O)C(c2cc3cc(Br)ccc3n3nnnc23)S1` (centres undefined): in assay [1], the GI50 is above 100 µM, the total growth inhibition concentration (TGI) was above 100 µM and the CC50 is above 100 µM. Moreover, in assay [2], the concentration for 50% growth inhibition (GI50) is below 0.1 µM, the LC50 (concentration killing 50% of cells) is above 100 µM and the total growth inhibition concentration (TGI) was above 100 µM. Besides, the result in assay [3] was Active.

Regarding `COc1cccc2c1C(=O)c1c(O)c3c(c(O)c1C2=O)C[C@@](O)(C(=O)CO)C[C@@H]3O[C@H]1C[C@H](N)[C@H](O)[C@H](C)O1` [DOXORUBICIN], in assay [1], the GI50 was below 0.1 µM, the concentration for total growth inhibition (TGI) was above 0.1 µM and the CC50 is above 100 µM. In assay [2], this molecule had a concentration for 50% growth inhibition (GI50) below 0.1 µM and a TGI above 0.1 µM.

`COc1cc2cc(C3SC(NC(C)=O)=NN3C(C)=O)c3nnnn3c2cc1OC` (centres undefined): in assay [1], the 50% growth inhibitory concentration (GI50) was above 100 µM, the total growth inhibition concentration (TGI) was above 100 µM and the CC50 is above 100 µM. In assay [2], this molecule returned a concentration for 50% growth inhibition (GI50) above 100 µM, an LC50 (concentration killing 50% of cells) above 100 µM and a TGI above 100 µM. In assay [3], the result was Active.

Consider `COc1cccc2cc(C3SC(NC(C)=O)=NN3C(C)=O)c3nnnn3c12` (centres undefined), for which, in assay [1], the GI50 is above 100 µM, the concentration for total growth inhibition (TGI) is above 100 µM and the CC50 was above 100 µM. Moreover, in assay [2], the GI50 was above 100 µM, the LC50 (concentration killing 50% of cells) is above 100 µM and the concentration for total growth inhibition (TGI) is above 100 µM. Also, in assay [3], the outcome was Active.

On to `CC(=O)NC1=NN(C(C)=O)C(c2cc3ccc(C)cc3n3nnnc23)S1` (centres undefined), for which, in assay [1], the 50% growth inhibitory concentration (GI50) came to 98.9 µM, the concentration for total growth inhibition (TGI) is above 100 µM and the CC50 was above 100 µM. In addition, in assay [2], halving of growth (GI50) required 83.3 µM, the LC50 (concentration killing 50% of cells) is above 100 µM and the TGI was above 100 µM.

`CC(=O)NC1=NN(C(C)=O)C(c2cc3cc(Cl)ccc3n3nnnc23)S1` (centres undefined): in assay [1], the GI50 was above 100 µM, the TGI was above 100 µM and the CC50 was above 100 µM. In assay [2], this molecule registered a GI50 below 0.1 µM, an LC50 (concentration killing 50% of cells) above 100 µM and a TGI above 100 µM. For the same molecule, the outcome in assay [3] was Active.

Consider `CC(=O)NC1=NN(C(C)=O)C(c2cc3cc(C)ccc3n3nnnc23)S1` (centres undefined), for which, in assay [1], the concentration for 50% growth inhibition (GI50) is above 100 µM, the TGI is above 100 µM and the CC50 was above 100 µM. In assay [2], this molecule had a 50% growth inhibitory concentration (GI50) of 81.3 µM, an LC50 (concentration killing 50% of cells) above 100 µM and a TGI above 100 µM. For the same molecule, in assay [3], the result was Active.

With `CC(=O)NC1=NN(C(C)=O)C(c2cc3ccccc3n3nnnc23)S1` (centres undefined), in assay [1], the GI50 is above 100 µM, the TGI is above 100 µM and the CC50 is above 100 µM. In addition, in assay [2], the GI50 was above 100 µM, the LC50 (concentration killing 50% of cells) is above 100 µM and the TGI was above 100 µM. The outcome in assay [3] was Active.

Take `COc1ccc2cc(C3SC(NC(C)=O)=NN3C(C)=O)c3nnnn3c2c1` (centres undefined): in assay [1], the concentration for 50% growth inhibition (GI50) is above 100 µM, the TGI is above 100 µM and the CC50 is above 100 µM. In assay [2], this molecule displayed a 50% growth inhibitory concentration (GI50) above 100 µM, an LC50 (concentration killing 50% of cells) above 100 µM and a TGI above 100 µM. Also, the outcome in assay [3] was Active.

Consider `CC(=O)NC1=NN(C(C)=O)C(c2cc3cccc(C)c3n3nnnc23)S1` (centres undefined), for which, in assay [1], the GI50 stood at 95.3 µM, the TGI was above 100 µM and the CC50 was above 100 µM. In assay [2], this molecule came in with a 50% growth inhibitory concentration (GI50) of 85.1 µM, an LC50 (concentration killing 50% of cells) above 100 µM and a TGI above 100 µM. The outcome in assay [3] was Active.

Turning to `COc1ccc2c(c1)cc(C1SC(NC(C)=O)=NN1C(C)=O)c1nnnn12` (centres undefined), in assay [1], the 50% growth inhibitory concentration (GI50) was above 100 µM, the total growth inhibition concentration (TGI) is above 100 µM and the CC50 is above 100 µM. In assay [2], this molecule displayed a GI50 above 100 µM, an LC50 (concentration killing 50% of cells) above 100 µM and a TGI above 100 µM. Further, in assay [3], the outcome was Active.
